From patent US5714516A, “Anti-viral agents” (priority 1992, dated 1998)
≈ marks a conversion by molar mass, not a printed value. Entries after “also recorded” stand apart in the source; their conditions may differ. Where two headings read alike, the source gives them in different places.

Tests used:
[1] = tested on: Varicella zoster virus (VZV); assay: VZV plaque reduction assay in Mewo cells; type: cell-based, varicella zoster virus (VZV) strain H-551; conditions: for Inhibition of VZV (in words): Example 1, 2 to 200 μM
Protocol: (§1) The assay system used was the Mewo cell plaque reduction assay of VZV, C. Grose and P. A. Brunell, Infection & Immunity, 19, 199-203 (1978). […] Compounds were tested at levels from 2 to 200 μM.
(§2) The VZV plaque assay of Example 1 was repeated using a variety of myristic acid analogues. Briefly, sub-confluent Mewo monolayers (Grose and Brunell, 1978, supra) in 24 well plates were infected with approximately 40 P.F.U. (Plaque Forming Units) of cell-free varicella zoster virus (VZV) strain H-551. After an adsorption period of 2 hours the cells were overlaid with 750 μl of MEM (Minimum Essential Medium (Eagle)) supplemented with 2% fetal calf serum and 1% non-essential amino acids. The anti-viral compounds to be tested were solubilized in ethanol, added to final concentrations of 0, 2, 20 or 200 μM and the wells then overlaid with a further 750 μl of MEM supplemented with 2% fetal calf serum, 1% non-essential amino acids and 0.3% agarose. Mock infected wells were also included as controls to test for cytotoxicity. All plates were incubated at 32° C. with 5% CO2. Eight days post infection the monolayers were fixed in 4% formaldehyde and stained with crystal violet.
(§3) The effect of 2-hydroxymyristic acid (2-HM) on VZV or HIV when solubilized in a variety of solvents was observed using the methods approved for the Medical Research Council AIDS Directed Programme as described in H. C. Holmes et al., Antiviral Chem. & Chemother. (1991), 2(5), 287-293, using concentrations of 2 HM from 0.08to 1000 μM. Additionally, back titration assays of HIV were carried out by adding supernatants from treated infected cells to uninfected C8166 cells at increasing dilutions. Assays were scored by recording the presence or absence of syncytium formation.
(§4) Preparation and assay of VZV was carried out as described previously in Examples 1 and 3.
(§5) Stocks of 2-HM were prepared from crystalline solid by dissolving in ethanol or in dimethyl sulphoxide (DMSO) to a concentration of 20 mM to 100 mM, and were stored at -20° C. prior to addition to culture media.

in vitro = assay: in vitro; parameters: Toxicity in Mewo Cells: key to the marks not given beside the values; conditions: human, mewo cells
Protocol: as §1, §2, §4

Mewo cells = assay: in vitro; parameters: Toxicity in Mewo Cells: key to the marks not given beside the values
Protocol: as §1, §2, §4

[2] = tested on: VZV viral antigen synthesis; assay: Synthesis of VZV viral antigen assayed by immunoblotting in infected MRC5 cells; type: cell-based, Varicella zoster virus (VZV)
Protocol: In order to characterise the nature of the antiviral effect, the effect of 2-hydroxymyristic acid on the synthesis of viral antigen was assayed by immunoblotting.

MRC5 monolayer = assay: Total protein synthesis by incorporation of 35S methionine in infected MRC5 cells (cytotoxicity); type: cell-based
Protocol: (§6) Cytotoxicity was assessed by the incorporation of radiolabelled precursors to assay protein synthesis and myristoylation in the infected cell.

myristoylation = assay: Myristoylation in the infected cell by incorporation of radiolabelled precursors; type: cell-based; conditions: 0.1 to 10×IC50
Protocol: as §6

HIV [3] = assay: HIV antigen assay; type: cell-based; conditions: for IC50: Human immunodeficiency virus 1, Table 2
Protocol: as §3
(§7) The HIV assays were performed at three of the MRC approved laboratories (Mill Hill, Cambridge and St. Bartholomew's Hospital).
as §5, with “media. Concentrations of 2-HM greater than 80 to 100 μM are imprecise, since 2-HM crystallises from aqueous solutions at such levels.” for “media.”

HIV [4] = assay: HIV virus titration (back titration, syncytium formation in C8166 cells); type: cell-based; conditions: Human immunodeficiency virus 1, C8166; Table 2; Ethanol; Mill Hill
Protocol: as §3, §7
as §5, with “media. Concentrations of 2-HM greater than 80 to 100 μM are imprecise, since 2-HM crystallises from aqueous solutions at such levels.” for “media.”

[5] = Cytotoxicity to C8166 cells in HIV assays; type: cell-based; conditions: human, c8166 cells, Table 2
Protocol: as §3, §7
as §5, with “media. Concentrations of 2-HM greater than 80 to 100 μM are imprecise, since 2-HM crystallises from aqueous solutions at such levels.” for “media.”

C8166 cells = assay: Cytotoxicity to C8166 cells in HIV assays; type: cell-based; conditions: St. Bartholomew's and Mill Hill; only above levels at which 2-HM would crystallise from aqueous solution
Protocol: as §3, §7
as §5, with “media. Concentrations of 2-HM greater than 80 to 100 μM are imprecise, since 2-HM crystallises from aqueous solutions at such levels.” for “media.”

[6] = Crystallisation from aqueous solution / medium; type: physicochemical
HIV [7] = conditions: Saermark et al.; Bryant et al.; cited from earlier work
[8] = Human alphaherpesvirus 3, MeWo, 192 h, Table 1, Example 3, solubilized in ethanol, 0, 2, 20 or 200 μM, eight days post infection, Mewo cells, read-out: IC50 Against VZV
[9] = Table 1, Example 3, solubilized in ethanol, 0, 2, 20 or 200 μM, eight days post infection, Mewo cells, read-out: IC50 Against VZV
[10] = Table 1, Example 3, solubilized in ethanol, 0, 2, 20 or 200 μM, eight days post infection, Mewo cells
[11] = Human alphaherpesvirus 3, MeWo, 192 h, read-out: IC50 Against VZV (μM)

With `CCCCCCCCCCCCC(O)C(=O)O` (racemic) [2-hydroxymyristic acid] the “Inhibition of VZV (in words)” value [1] was “showed inhibition at 20 and 200 μM”, the IC50 ([1]; Human alphaherpesvirus 3, MeWo, 8 μM lower end to 33 μM upper end, read-out: Range of IC50 against VZV over Examples) was 8 to 33 µM and the IC50 [1, 8] was 21.5 µM. For the same compound, the IC50 ([1]; Human alphaherpesvirus 3, MeWo, Table 2, DMSO, St. Bartholomew's, read-out: IC50, VZV plaque reduction) was greater than 200 µM, the IC50 ([1]; Human alphaherpesvirus 3, MeWo, Table 2, Ethanol, St. Bartholomew's, read-out: IC50, VZV plaque reduction) was 33.1 µM and the IC50 ([1]; Human alphaherpesvirus 3, MeWo, read-out: 50% inhibitory concentration (IC50), VZV plaque reduction) was 8 µM. The “Anti-viral effect against VZV (in words)” value ([1]; solubilised in DMSO) was “no significant anti-viral effect”, the “Inhibition of VZV replication (in words)” value ([1]; solubilised in ethanol, St. Bartholomew's Hospital) was “inhibits the replication” and the CC50 (in vitro) was greater than 200 µM. For the same compound, the “Cytotoxicity in the assay (in words)” value (Mewo cells) was “failed to be cytotoxic”, the CC50 (Mewo cells; human, mewo cells) was greater than 200 µM and the “Effect on syncytium formation” value ([2]; MRC5 monolayers, suggested by results) was “inhibit syncytium formation”. For the same compound, the “Reduction in viral antigen synthesis” value ([2]; inoculum one infected to four uninfected cells, three days post-infection, 80 μM (10×IC50)) was “no reduction in antigen synthesis was apparent”, the “Inhibition of viral antigen synthesis at reduced inoculum” value ([2]; reduced initial inoculum, harvest time increased, inversely proportional to inoculum) was “inhibition was apparent” and the “Total protein synthesis (35S methionine incorporation)” value (MRC5 monolayer; 1:4 inoculum, 0.1 to 10×IC50) was “unaffected at any concentration tested”. The “Cellular toxicity (in words)” value (MRC5 monolayer; up to ten times greater than the IC50) was “not toxic to cells; also recorded: without producing significant cellular toxicity”, the Inhibition of myristoylation (myristoylation) was “non-specific inhibition of myristoylation” and the IC50 (HIV [3]; DMSO, St. Bartholomew's) was 220 µM. For the same compound, the IC50 (HIV [3]; Ethanol, Mill Hill) was 2 µM, the IC50 (HIV [3]; Ethanol, St. Bartholomew's) was 31.4 µM and the “Anti-viral effect against HIV on re-test (in words)” value (HIV [3]; ethanol as the solvent, St. Bartholomew's Hospital) was “a clear anti-viral effect was apparent”. For the same compound, the “Anti-viral effect against HIV (in words)” value (HIV [3]; solubilised in DMSO, St. Bartholomew's Hospital) was “lack of any significant anti-viral effect”, the “Inhibition of HIV replication (in words)” value (HIV [3]; solubilised in ethanol, Mill Hill) was “inhibits the replication” and the IC50 (HIV [4]) was 3.9 µM. The CC50 ([5]; DMSO, St. Bartholomew's, read-out: TC50, HIV antigen assay) was greater than 400 µM, the CC50 ([5]; Ethanol, Mill Hill, antigen assay, read-out: TC50, HIV antigen assay) was 192 µM and the CC50 ([5]; Ethanol, Mill Hill, virus titration, read-out: TC50, HIV virus titration) was 192 µM. For the same compound, the CC50 ([5]; Ethanol, St. Bartholomew's, read-out: TC50, HIV antigen assay) was 168 µM, the “Toxicity to C8166 cells (in words)” value (C8166 cells) was “toxicity of 2-HM to C8166 cells was detected” and the solubility ([6]; aqueous solution, aqueous solutions, read-out: Concentration above which 2-HM crystallises from aqueous solutions) was 80 to 100 µM (≈ 19.5 to 24.4 µg/mL). The Crystalline deposits ([6]; at the highest concentration, VZV plaque assay) was “crystalline deposits were observed”.
For `CCCCCCCCCCCCC(O)C(=O)O` (single isomer, unassigned) [2-hydroxytetradecanoic acid (+)], the IC50 [1, 9] was 48.7 µM and the “Cytotoxicity in the assay (in words)” value (Mewo cells) was “failed to be cytotoxic”.
In the case of `CCCCCCCCCCCCC(O)C(=O)O` (single isomer, unassigned) [2-hydroxytetradecanoic acid (-)], the IC50 [1, 9] is reported as 11.5 µM and the “Cytotoxicity in the assay (in words)” value (Mewo cells) is reported as “failed to be cytotoxic”.
`CCCCCCCCCC(OCC)C(=O)O` (stereo not drawn) [2-(ethyloxy)undecanoic acid, reference compound] showed an IC50 [1, 8] of 14.4 µM.
With `CCCCCCCCCCCCC(N=[N+]=[N-])C(=O)O` (stereo not drawn) [2-azidotetradecanoic acid, reference compound] the “IC50 Against VZV (μM)” value [1, 10] was “unobtainable”.
In the case of `CCCCCCCCCCCCCCC(Br)C(=O)O` (stereo not drawn) [2-bromopalmitic acid], the IC50 [1, 11] is reported as 0.89 µM, the “Toxic at 200 μM (in words)” value (Mewo cells; Example 3, at 200 μM) is reported as “toxic at 200 μM” and the “Toxicity in Mewo Cells” value (Mewo cells; Table 1, Example 3, 0, 2, 20 or 200 μM, eight days post infection) is reported as “+++”.
`CCCCCCCCCCCCC(Br)C(=O)O` (stereo not drawn) [2-bromotetradecanoic acid, reference compound] gave an IC50 [1, 8] of 14.8 µM.
For `CCCCCCCCCCCCCCC(O)C(=O)O` (stereo not drawn) [2-hydroxypalmitic acid], the IC50 [1, 8] was 14.2 µM.
In the case of `CCCCNCCCCCCCCC(=O)O` [9-(butylamino)nonanoic acid, reference compound], the IC50 [1, 8] is reported as 164 µM.
In the case of `CCNCCCCCCCCCCC(=O)O` [11-(ethylamino)undecanoic acid, reference compound], the “IC50 Against VZV (μM)” value [1, 10] is reported as “unobtainable”.
For `CCSCCCCCCCCCCC(=O)O` [11-(ethylthio)undecanoic acid, reference compound], the “IC50 Against VZV (μM)” value [1, 10] was “unobtainable”.
Work on `COCCCCCCCCCCCC(=O)O` [12-(methyloxy)dodecanoic acid, reference compound] yielded an IC50 [1, 11] of 17.3 µM.
In the case of `COCCCCCCCCCCCC(=O)O` [13-oxamyristic acid], the “Inhibition of HIV release from infected cells (in words)” value (HIV [7]) is given as “effective”.
In the case of `CCCCCCCCCCCCCC(=O)NCC(OCC)OCC` [N-myristoylglycinaldiethylacetal (GoA), N-myristoylglycinaldiethylacetal, reference compound], the “Inhibition of VZV (in words)” value [1] is reported as “did not cause 50% inhibition of virus at any concentration tested” and the “IC50 Against VZV (μM)” value [1, 10] is reported as “unobtainable”.
`O=C(O)C1CO1` (stereo not drawn) [glycidic acid, reference compound] showed an IC50 [1, 8] of 4.5 µM.
For `CCCCCCCCCCCCCC(=O)NC` [myristoylmethylamide, reference compound], the IC50 [1, 8] was 56.6 µM.
